# Values quoted from earlier work, collected in the PKSmart pharmacokinetics tables (Seal et al. 2025).
# *1 amine or outer side, *2 acyl side, *3 side chain or, on linkers, in order; H or OH if unused. Where a SMILES comes first, the peptide text is derived from it. Bridges are numbered along the chain shown (N, C = ends). [ ]: non-standard residue; d: D form. ξ: configuration not given here. ξPro(4R-OH) = O=C(O)C1C[C@@H](O)CN1; ξ2Thi = NC(Cc1cccs1)C(=O)O; ξR = N=C(N)NCCCC(N)C(=O)O; Iva = CC[C@](C)(N)C(=O)O; ξF = NC(Cc1ccccc1)C(=O)O; X3 = O=C(CCC[*:2])[*:1]; ξN = NC(=O)CC(N)C(=O)O; ξC = NC(CS)C(=O)O
# Assay: Lombardo, Berellini, Obach 2018, Drug Metab Dispos 46:1466, doi 10.1124/dmd.118.082966
# Conditions: human; for MRT / Vd / clearance / half-life: in vivo, iv; for fraction unbound: plasma
SMILES,MRT [h],Vd [L/kg],clearance [mL/min/kg],half-life [h],fraction unbound
CC[C@]1(C)NC(=O)C(Cc2cccs2)NC(=O)C(Cc2ccccc2)NC(=O)CCCSCC(C(=O)N2C[C@H](O)CC2C(=O)NC(CCCNC(=N)N)C(=O)NCC(N)=O)NC(=O)C(CC(N)=O)NC1=O (stereo partly drawn) ([ξF][ξ2Thi][Iva][ξN][ξC][ξPro(4R-OH)][ξR]G-NH2; linker N-5 via X3),5.63,0.31,0.87,4.28,–
O=NNc1cnccn1,0.29,0.31,15.1,0.38,–
Nc1nc(OCc2cc(Br)cs2)c2[nH]cnc2n1,–,–,21.6,2.92,–
Cc1ccc(-n2nccn2)c(C(=O)N2CCN(c3nc4cc(Cl)ccc4o3)CC[C@H]2C)c1,13.8,0.69,0.84,10.4,0.05
CCCCN1CCCC1C(=O)Nc1c(C)cc(C)cc1C (centres undefined),1.51,1.73,19.2,1.58,–
CCC1=C(C)CN(C(=O)NCCc2ccc(S(=O)(=O)NC(=O)N[C@H]3CC[C@H](C)CC3)cc2)C1=O,–,0.19,0.5,10,–
CN(C)CCCO[C@@H]1[C@H]2OC(C)(C)O[C@H]2O[C@@H]1[C@H](O)CO,5,1.04,3.48,4.07,0.97
O=c1[nH]cnc2c1ncn2[C@H]1CC[C@@H](CO)O1,1.2,–,11,1.4,–
COc1ccccc1N1CCN(C[C@@H](O)COc2cccc3ccccc23)CC1,–,–,11,3.3,0.008
CC[C@@]1(O)CN2CC[C@H]1C[C@@H]2[C@@H](O)c1ccnc2ccc(OC)cc12,9.4,6.8,12,6.7,0.47
CC1(C)O[C@@H]2[C@@H](CO[C@@]3(COS(N)(=O)=O)OC(C)(C)O[C@@H]23)O1,48.7,0.8,0.27,34.8,0.72
CCC(=O)C1(c2cccc(O)c2)CCN(C)CC1,0.87,0.48,9.2,2.3,–
CCCNC(C)C(=O)Nc1ccccc1C (centres undefined),2.2,3.7,29,1.8,0.72
CC(C)N(CC[C@H](c1ccccc1)c1cc(CO)ccc1O)C(C)C,–,2.41,–,–,0.5
COCOCC(CCC1(C(=O)NC2CCC(C(=O)O)CC2)CCCC1)C(=O)O (centres undefined),1.81,0.25,2.3,16,0.872
Nc1ccn([C@@H]2C=C(CO)[C@@H](O)[C@H]2O)c(=O)n1,–,–,3.61,–,–
NS(=O)(=O)c1cc2c(cc1C(F)(F)F)NCNS2(=O)=O,3.8,2.2,9.7,5.2,–
CCCCCN(C)CCC(O)(P(=O)(O)O)P(=O)(O)O,5.1,0.55,1.8,14,0.15

SMILES,MRT [h],Vd [L/kg],clearance [mL/min/kg],half-life [h],fraction unbound
C[C@@H](Oc1cc(-n2cnc3ccc(CN4CCN(C)CC4)cc32)sc1C(N)=O)c1ccccc1C(F)(F)F,10,12,20,10.3,–
O=C1C[C@@H](c2ccccc2)Oc2cc(O)cc(O)c21,0.47,0.8,27,0.7,–
COc1cc2nc(N(C)CCCNC(=O)C3CCCO3)nc(N)c2cc1OC (centres undefined),4.2,1.5,5.9,4.8,0.14
N#Cc1ccc(Cn2cncc2CN2CCN(c3cccc(Cl)c3)C(=O)C2)cc1,4.2,0.8,3.2,2.6,–
CC(Oc1ccccc1)C(=O)NC1C(=O)N2C(C(=O)O)C(C)(C)S[C@H]12 (some centres undefined),1.2,0.3,4.2,0.91,0.25
Cc1cc2c(OCC(O)CNC(C)C)cccc2[nH]1 (centres undefined),6.21,2.17,5.83,4.61,0.51
Cc1cnc(NCCCN(C)C)c2c1[nH]c1ccc3cc(O)ccc3c12,11,11,18,19,–
COCCCN1CCC(NC(=O)c2cc(Cl)c(N)c3c2OCC3)CC1,32.2,8.73,4.55,22.5,0.7
CC1(C)S[C@@H]2C(NC(=O)C(NC(=O)N3CCNC3=O)c3ccccc3)C(=O)N2C1C(=O)O (some centres undefined),1.7,0.26,2.5,1.2,0.65
N=C(N)c1ccc(CNC(=O)C2CCN2C(=O)C(NCC(=O)O)C2CCCCC2)cc1 (centres undefined),2,0.23,1.9,1.6,–
C=Cc1c(C)c2[nH]c1=Cc1[nH]c(c(=CCC(=O)O)c1C)=Cc1[nH]c(c(C)c1CCC(=O)OC)C=C1NC(=C3C=CC(C(=O)OC)=C(C(=O)OC)[C@@]13C)C=2,6.6,0.63,1.6,5.6,–
O=C1N=C(c2ccccc2Cl)c2cc(Cl)ccc2NC1O (centres undefined),22,1.3,1,17,–
CCn1cnc(C(=O)NC)c1C(=O)NC,1,0.73,12.1,0.83,0.92
O=C(NCCNCC(O)COc1ccc(O)cc1)N1CCOCC1 (centres undefined),3.6,0.64,3,7.7,–
Nc1nc2c(Cc3cccnc3)c[nH]c2c(=O)[nH]1,3.2,1.2,6.2,3,0.86
CCn1cc(C(=O)O)c(=O)c2cnc(N3CCNCC3)nc21,5.15,0.88,2.84,3.69,0.7
C[C@H](CCc1ccccc1)NC[C@H](O)c1ccc(O)c(C(N)=O)c1,2.8,–,29,3.3,–
